Results as given in PMC9927415, “Tyrosine Kinase Inhibitors Display Potent Activity against Cryptosporidium parvum” (Microbiology Spectrum, 2022).

Columns and labels:
Assay in all cases: KINOMEscan competitive binding, whole panel
panel of 203 kinases [1] = molecular target: T1, panel of 203 kinases (Homo sapiens, UniProt P29317); conditions: 10 µM, n=1; kinase EPHA2; read-out: Percent inhibition EPHA2
T1 construct: purchased DiscoverX (KINOMEscan)
Source text: (§1) The kinases were expressed as fusions to T7 bacteriophage. This is a sensitive, competitive binding assay where test compounds were used to displace immobilized ATP-site binding probe ligands from kinases of interest. The amount of kinase that remained bound to the immobilized probe ligands on the solid support was quantified. Percentage inhibition data were was plotted on kinome trees using the web-based tool KinMap (http://www.kinhub.org/kinmap) ([60]).

panel of 203 kinases [2] = molecular target: T2, panel of 203 kinases (Homo sapiens, UniProt P22607); conditions: 10 µM, n=1; kinase FGFR3; read-out: Percent inhibition FGFR3
T2 construct: purchased DiscoverX (KINOMEscan)
Source text: as §1

panel of 203 kinases [3] = molecular target: T3, panel of 203 kinases (Homo sapiens, UniProt P53779); conditions: 10 µM, n=1; kinase JNK3; read-out: Percent inhibition JNK3
T3 construct: purchased DiscoverX (KINOMEscan)
Source text: as §1

panel of 203 kinases [4] = molecular target: T4, panel of 203 kinases (Homo sapiens, UniProt P16591); conditions: 10 µM, n=1; kinase FER; read-out: Percent inhibition FER
T4 construct: purchased DiscoverX (KINOMEscan)
Source text: as §1

panel of 203 kinases [5] = molecular target: T5, panel of 203 kinases (Homo sapiens, UniProt Q9Y2H1); conditions: 10 µM, n=1; kinase NDR2; read-out: Percent inhibition NDR2
T5 construct: purchased DiscoverX (KINOMEscan)
Source text: as §1

panel of 203 kinases [6] = molecular target: T6, panel of 203 kinases (Homo sapiens, UniProt Q13131); conditions: 10 µM, n=1; kinase AMPK-alpha1; read-out: Percent inhibition AMPK-alpha1
T6 construct: purchased DiscoverX (KINOMEscan)
Source text: as §1

panel of 203 kinases [7] = molecular target: T7, panel of 203 kinases (Homo sapiens, UniProt Q9UF33); conditions: 10 µM, n=1; kinase EPHA6; read-out: Percent inhibition EPHA6
T7 construct: purchased DiscoverX (KINOMEscan)
T7 sequence (Q9UF33 23-1036): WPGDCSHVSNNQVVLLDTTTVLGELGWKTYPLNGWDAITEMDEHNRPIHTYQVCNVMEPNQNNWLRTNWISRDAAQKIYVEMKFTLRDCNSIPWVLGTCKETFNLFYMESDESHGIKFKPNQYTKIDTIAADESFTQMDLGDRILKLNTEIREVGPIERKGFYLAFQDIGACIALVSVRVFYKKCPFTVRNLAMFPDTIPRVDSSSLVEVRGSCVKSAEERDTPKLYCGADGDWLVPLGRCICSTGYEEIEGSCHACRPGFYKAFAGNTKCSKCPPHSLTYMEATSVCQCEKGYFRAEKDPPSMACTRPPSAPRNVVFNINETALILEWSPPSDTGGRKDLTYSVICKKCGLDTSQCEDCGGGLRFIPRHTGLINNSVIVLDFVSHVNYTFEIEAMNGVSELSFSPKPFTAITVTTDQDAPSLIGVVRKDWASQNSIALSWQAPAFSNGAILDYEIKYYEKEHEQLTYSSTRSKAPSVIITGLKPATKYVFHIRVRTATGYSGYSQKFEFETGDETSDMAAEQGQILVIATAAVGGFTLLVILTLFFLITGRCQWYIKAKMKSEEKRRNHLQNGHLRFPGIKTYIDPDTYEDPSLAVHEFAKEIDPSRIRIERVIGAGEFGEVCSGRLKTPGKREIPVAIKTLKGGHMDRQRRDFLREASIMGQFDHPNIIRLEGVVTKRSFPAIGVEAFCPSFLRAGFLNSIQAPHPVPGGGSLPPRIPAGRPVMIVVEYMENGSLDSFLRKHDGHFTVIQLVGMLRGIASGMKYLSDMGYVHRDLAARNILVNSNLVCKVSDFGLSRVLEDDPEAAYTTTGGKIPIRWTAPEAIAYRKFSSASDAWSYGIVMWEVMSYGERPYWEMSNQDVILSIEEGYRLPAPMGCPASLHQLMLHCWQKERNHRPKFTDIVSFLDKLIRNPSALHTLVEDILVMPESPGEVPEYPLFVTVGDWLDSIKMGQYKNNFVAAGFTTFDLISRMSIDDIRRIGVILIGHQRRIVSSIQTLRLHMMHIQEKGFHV
Source text: as §1

panel of 203 kinases [8] = molecular target: T8, panel of 203 kinases (Homo sapiens, UniProt Q8IWQ3); conditions: 10 µM, n=1; kinase BRSK2; read-out: Percent inhibition BRSK2
T8 construct: purchased DiscoverX (KINOMEscan)
T8 sequence (Q8IWQ3 1-736): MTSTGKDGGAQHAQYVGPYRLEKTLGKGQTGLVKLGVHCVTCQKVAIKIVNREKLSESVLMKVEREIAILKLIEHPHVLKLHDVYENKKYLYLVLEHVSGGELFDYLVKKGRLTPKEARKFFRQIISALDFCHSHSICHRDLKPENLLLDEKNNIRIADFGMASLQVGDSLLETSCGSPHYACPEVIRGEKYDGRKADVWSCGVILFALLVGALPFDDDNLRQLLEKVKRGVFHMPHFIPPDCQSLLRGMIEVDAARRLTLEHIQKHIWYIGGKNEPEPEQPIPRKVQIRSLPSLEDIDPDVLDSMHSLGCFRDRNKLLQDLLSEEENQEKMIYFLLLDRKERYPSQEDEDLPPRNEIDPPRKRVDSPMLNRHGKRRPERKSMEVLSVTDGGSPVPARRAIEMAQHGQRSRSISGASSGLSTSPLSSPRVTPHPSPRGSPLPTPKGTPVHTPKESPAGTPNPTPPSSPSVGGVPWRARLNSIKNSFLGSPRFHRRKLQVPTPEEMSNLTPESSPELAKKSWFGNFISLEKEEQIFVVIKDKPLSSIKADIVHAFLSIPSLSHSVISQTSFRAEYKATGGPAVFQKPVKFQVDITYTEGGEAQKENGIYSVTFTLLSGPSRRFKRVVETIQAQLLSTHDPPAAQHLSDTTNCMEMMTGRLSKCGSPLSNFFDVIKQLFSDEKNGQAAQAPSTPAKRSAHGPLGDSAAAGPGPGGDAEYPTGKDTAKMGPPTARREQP
Source text: as §1

T6 sequence (Q13131 whole entry): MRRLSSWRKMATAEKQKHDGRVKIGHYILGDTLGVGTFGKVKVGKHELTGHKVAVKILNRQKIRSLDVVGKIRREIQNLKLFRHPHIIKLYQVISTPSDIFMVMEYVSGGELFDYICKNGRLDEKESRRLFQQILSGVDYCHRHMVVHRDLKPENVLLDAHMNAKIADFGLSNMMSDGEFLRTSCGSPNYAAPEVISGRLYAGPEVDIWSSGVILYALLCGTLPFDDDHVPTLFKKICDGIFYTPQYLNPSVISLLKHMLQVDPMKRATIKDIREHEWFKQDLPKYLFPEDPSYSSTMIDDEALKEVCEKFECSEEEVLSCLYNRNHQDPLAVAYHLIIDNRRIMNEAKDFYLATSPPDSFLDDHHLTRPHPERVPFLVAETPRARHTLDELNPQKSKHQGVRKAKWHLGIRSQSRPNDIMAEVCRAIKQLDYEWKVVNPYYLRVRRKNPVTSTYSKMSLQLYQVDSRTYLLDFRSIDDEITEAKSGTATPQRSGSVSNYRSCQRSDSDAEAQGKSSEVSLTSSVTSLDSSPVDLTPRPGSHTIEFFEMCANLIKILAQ
T1 sequence (P29317 24-976): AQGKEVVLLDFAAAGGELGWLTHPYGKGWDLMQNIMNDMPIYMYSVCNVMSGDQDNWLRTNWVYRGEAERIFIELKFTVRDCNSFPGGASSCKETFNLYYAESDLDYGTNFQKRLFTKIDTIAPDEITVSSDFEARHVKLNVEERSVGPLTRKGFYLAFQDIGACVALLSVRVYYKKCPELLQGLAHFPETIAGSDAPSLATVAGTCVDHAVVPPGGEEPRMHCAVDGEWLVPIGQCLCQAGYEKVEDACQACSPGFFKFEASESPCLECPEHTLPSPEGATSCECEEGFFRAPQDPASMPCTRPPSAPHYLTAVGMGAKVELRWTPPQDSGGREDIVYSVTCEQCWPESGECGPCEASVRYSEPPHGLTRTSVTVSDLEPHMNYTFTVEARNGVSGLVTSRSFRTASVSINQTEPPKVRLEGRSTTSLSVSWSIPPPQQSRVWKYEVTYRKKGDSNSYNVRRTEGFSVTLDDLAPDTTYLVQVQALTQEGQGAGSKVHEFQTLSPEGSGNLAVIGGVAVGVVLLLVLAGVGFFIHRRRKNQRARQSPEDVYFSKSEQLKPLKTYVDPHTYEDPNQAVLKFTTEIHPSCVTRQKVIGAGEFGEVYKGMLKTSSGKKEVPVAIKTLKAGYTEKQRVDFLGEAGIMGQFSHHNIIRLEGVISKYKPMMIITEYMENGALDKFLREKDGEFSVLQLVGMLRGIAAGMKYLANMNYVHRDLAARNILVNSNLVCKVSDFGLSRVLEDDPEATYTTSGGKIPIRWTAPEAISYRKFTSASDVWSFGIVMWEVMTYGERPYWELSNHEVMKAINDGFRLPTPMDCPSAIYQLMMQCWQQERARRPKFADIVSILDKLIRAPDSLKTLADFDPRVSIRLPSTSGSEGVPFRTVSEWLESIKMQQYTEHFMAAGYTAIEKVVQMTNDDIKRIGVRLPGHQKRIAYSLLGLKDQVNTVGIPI
T4 sequence (P16591 whole entry): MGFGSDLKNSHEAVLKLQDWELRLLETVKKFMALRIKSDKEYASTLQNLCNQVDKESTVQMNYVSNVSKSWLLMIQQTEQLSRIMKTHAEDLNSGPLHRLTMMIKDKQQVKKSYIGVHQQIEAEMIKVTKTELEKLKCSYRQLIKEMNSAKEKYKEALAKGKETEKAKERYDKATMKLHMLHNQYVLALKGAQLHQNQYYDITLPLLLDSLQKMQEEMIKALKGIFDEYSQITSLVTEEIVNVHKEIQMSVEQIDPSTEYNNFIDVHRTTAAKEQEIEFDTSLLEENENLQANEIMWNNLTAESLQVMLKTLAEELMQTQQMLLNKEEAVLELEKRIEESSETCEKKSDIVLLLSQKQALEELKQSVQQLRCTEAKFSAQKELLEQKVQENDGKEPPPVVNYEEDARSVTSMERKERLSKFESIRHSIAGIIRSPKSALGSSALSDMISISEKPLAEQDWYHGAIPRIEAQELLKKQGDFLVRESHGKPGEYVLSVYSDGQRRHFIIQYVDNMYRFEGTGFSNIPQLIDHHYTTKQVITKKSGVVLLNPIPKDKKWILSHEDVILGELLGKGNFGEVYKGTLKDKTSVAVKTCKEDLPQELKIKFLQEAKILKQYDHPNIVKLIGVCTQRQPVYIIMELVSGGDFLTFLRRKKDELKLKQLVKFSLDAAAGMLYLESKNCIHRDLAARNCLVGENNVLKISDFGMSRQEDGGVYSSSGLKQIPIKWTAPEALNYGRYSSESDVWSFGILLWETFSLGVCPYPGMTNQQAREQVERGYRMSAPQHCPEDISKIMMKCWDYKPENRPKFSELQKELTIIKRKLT
T3 sequence (P53779 whole entry): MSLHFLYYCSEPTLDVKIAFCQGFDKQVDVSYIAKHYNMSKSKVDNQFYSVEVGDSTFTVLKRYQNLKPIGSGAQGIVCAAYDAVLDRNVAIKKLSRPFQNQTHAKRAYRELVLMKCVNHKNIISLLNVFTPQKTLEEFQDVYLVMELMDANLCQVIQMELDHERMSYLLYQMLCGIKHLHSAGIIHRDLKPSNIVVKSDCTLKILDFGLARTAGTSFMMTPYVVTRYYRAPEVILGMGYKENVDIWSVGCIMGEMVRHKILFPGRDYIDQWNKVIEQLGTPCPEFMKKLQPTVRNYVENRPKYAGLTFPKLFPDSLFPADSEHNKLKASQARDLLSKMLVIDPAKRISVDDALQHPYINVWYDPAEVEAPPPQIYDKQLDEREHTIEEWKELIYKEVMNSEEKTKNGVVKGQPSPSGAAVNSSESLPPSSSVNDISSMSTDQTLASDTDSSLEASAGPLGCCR
T2 sequence (P22607 23-806): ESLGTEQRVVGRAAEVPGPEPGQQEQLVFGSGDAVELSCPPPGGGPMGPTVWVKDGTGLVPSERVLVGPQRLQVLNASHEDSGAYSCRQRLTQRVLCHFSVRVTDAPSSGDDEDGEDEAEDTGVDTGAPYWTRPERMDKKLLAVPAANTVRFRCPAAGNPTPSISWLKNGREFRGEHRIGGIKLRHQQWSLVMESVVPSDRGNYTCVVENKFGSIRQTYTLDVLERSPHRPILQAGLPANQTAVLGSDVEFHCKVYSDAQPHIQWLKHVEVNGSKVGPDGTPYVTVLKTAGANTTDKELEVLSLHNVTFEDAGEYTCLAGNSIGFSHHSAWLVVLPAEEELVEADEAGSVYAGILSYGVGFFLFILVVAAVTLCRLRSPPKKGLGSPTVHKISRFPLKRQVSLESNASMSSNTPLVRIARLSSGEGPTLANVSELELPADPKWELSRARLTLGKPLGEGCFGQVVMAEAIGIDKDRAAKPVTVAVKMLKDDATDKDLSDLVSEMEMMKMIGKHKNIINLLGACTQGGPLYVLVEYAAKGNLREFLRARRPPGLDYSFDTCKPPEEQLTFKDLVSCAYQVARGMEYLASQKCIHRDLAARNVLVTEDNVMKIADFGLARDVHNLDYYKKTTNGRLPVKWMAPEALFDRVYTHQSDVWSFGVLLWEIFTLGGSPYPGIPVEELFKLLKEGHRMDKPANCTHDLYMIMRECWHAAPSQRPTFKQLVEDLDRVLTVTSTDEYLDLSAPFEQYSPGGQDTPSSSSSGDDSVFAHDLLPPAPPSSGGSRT
T5 sequence (Q9Y2H1 whole entry): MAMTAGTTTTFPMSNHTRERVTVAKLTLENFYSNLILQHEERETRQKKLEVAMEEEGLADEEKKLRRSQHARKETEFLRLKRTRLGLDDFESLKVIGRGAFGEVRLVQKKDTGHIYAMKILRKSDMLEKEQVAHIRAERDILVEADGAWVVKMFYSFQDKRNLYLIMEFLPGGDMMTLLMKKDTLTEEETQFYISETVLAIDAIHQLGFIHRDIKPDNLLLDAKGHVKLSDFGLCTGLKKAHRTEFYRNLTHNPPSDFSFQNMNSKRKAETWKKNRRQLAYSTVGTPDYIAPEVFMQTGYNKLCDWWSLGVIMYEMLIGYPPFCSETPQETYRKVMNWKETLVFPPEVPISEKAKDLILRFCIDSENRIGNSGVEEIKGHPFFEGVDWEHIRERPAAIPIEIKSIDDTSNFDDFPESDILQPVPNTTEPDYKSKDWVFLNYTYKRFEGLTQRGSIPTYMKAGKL

## CN1CCN(c2ccc(Nc3nccc(-c4cnn5ncccc45)n3)cc2C#N)CC1 [Compound 1]
Panel of 203 kinases [1]
  inhibition at 10 µM: 0%
Panel of 203 kinases [2]
  inhibition at 10 µM: 0%
Panel of 203 kinases [3]
  inhibition at 10 µM: 100%
Panel of 203 kinases [4]
  inhibition at 10 µM: 0%
Panel of 203 kinases [5]
  inhibition at 10 µM: 0%
Panel of 203 kinases [6]
  inhibition at 10 µM: 75.7%
Panel of 203 kinases [7]
  inhibition at 10 µM: 0%
Panel of 203 kinases [8]
  inhibition at 10 µM: 0%

## COc1ccc(Nc2nccc(-c3cnn4ncccc34)n2)cc1 [Compound 2]
Panel of 203 kinases [1]
  inhibition at 10 µM: 0%
Panel of 203 kinases [2]
  inhibition at 10 µM: 67.6%
Panel of 203 kinases [3]
  inhibition at 10 µM: 100%
Panel of 203 kinases [4]
  inhibition at 10 µM: 74.7%
Panel of 203 kinases [5]
  inhibition at 10 µM: 91.7%
Panel of 203 kinases [6]
  inhibition at 10 µM: 0%
Panel of 203 kinases [7]
  inhibition at 10 µM: 65.1%
Panel of 203 kinases [8]
  inhibition at 10 µM: 0%

## Cc1ccc(O)cc1Nc1ccnc(Nc2cccc(C(N)=O)c2)n1 [Compound 3]
Panel of 203 kinases [1]
  inhibition at 10 µM: 99.9%
Panel of 203 kinases [2]
  inhibition at 10 µM: 0%
Panel of 203 kinases [3]
  inhibition at 10 µM: 94.2%
Panel of 203 kinases [4]
  inhibition at 10 µM: 95%
Panel of 203 kinases [5]
  inhibition at 10 µM: 0%
Panel of 203 kinases [6]
  inhibition at 10 µM: 0%
Panel of 203 kinases [7]
  inhibition at 10 µM: 100%
Panel of 203 kinases [8]
  inhibition at 10 µM: 0%

## Cc1ccc(O)cc1N(C)c1ccnc(Nc2cccc(S(N)(=O)=O)c2)n1 [Compound 4]
Panel of 203 kinases [1]
  inhibition at 10 µM: 99.5%
Panel of 203 kinases [2]
  inhibition at 10 µM: 65.4%
Panel of 203 kinases [3]
  inhibition at 10 µM: 96.1%
Panel of 203 kinases [4]
  inhibition at 10 µM: 99.6%
Panel of 203 kinases [5]
  inhibition at 10 µM: 69.4%
Panel of 203 kinases [6]
  inhibition at 10 µM: 0%
Panel of 203 kinases [7]
  inhibition at 10 µM: 100%
Panel of 203 kinases [8]
  inhibition at 10 µM: 0%

## Fc1cccc(COc2ccc(Nc3ncnc4c3CN(CCN3CCOCC3)CC4)cc2Cl)c1 [Compound 6]
Panel of 203 kinases [1]
  inhibition at 10 µM: 0%
Panel of 203 kinases [2]
  inhibition at 10 µM: 96.3%
Panel of 203 kinases [3]
  inhibition at 10 µM: 0%
Panel of 203 kinases [4]
  inhibition at 10 µM: 0%
Panel of 203 kinases [5]
  inhibition at 10 µM: 0%
Panel of 203 kinases [6]
  inhibition at 10 µM: 0%
Panel of 203 kinases [7]
  inhibition at 10 µM: 0%
Panel of 203 kinases [8]
  inhibition at 10 µM: 0%

## COc1cc(Nc2nccc(-c3sc(N)nc3-c3cccc(NC(=O)c4c(F)cccc4F)c3)n2)cc(OC)c1OC [Compound 7]
Panel of 203 kinases [1]
  inhibition at 10 µM: 99.4%
Panel of 203 kinases [2]
  inhibition at 10 µM: 100%
Panel of 203 kinases [3]
  inhibition at 10 µM: 100%
Panel of 203 kinases [4]
  inhibition at 10 µM: 99%
Panel of 203 kinases [5]
  inhibition at 10 µM: 100%
Panel of 203 kinases [6]
  inhibition at 10 µM: 98.4%
Panel of 203 kinases [7]
  inhibition at 10 µM: 100%
Panel of 203 kinases [8]
  inhibition at 10 µM: 0%

## C[C@@H](Oc1cc(-c2cnc3ccccn23)sc1C(N)=O)c1ccccc1Cl [Compound 8]
Panel of 203 kinases [1]
  inhibition at 10 µM: 0%
Panel of 203 kinases [2]
  inhibition at 10 µM: 0%
Panel of 203 kinases [3]
  inhibition at 10 µM: 0%
Panel of 203 kinases [4]
  inhibition at 10 µM: 0%
Panel of 203 kinases [5]
  inhibition at 10 µM: 0%
Panel of 203 kinases [6]
  inhibition at 10 µM: 0%
Panel of 203 kinases [7]
  inhibition at 10 µM: 0%
Panel of 203 kinases [8]
  inhibition at 10 µM: 91.2%

## c1ccc(COc2cccc(-c3ccnc4[nH]ccc34)c2)cc1 [Compound 9]
Panel of 203 kinases [1]
  inhibition at 10 µM: 0%
Panel of 203 kinases [2]
  inhibition at 10 µM: 0%
Panel of 203 kinases [3]
  inhibition at 10 µM: 0%
Panel of 203 kinases [4]
  inhibition at 10 µM: 0%
Panel of 203 kinases [5]
  inhibition at 10 µM: 0%
Panel of 203 kinases [6]
  inhibition at 10 µM: 0%
Panel of 203 kinases [7]
  inhibition at 10 µM: 0%
Panel of 203 kinases [8]
  inhibition at 10 µM: 0%

## Clc1ccc(Nc2ncc(-c3ccccc3)s2)cc1 [Compound 10]
Panel of 203 kinases [1]
  inhibition at 10 µM: 0%
Panel of 203 kinases [2]
  inhibition at 10 µM: 0%
Panel of 203 kinases [3]
  inhibition at 10 µM: 0%
Panel of 203 kinases [4]
  inhibition at 10 µM: 0%
Panel of 203 kinases [5]
  inhibition at 10 µM: 0%
Panel of 203 kinases [6]
  inhibition at 10 µM: 0%
Panel of 203 kinases [7]
  inhibition at 10 µM: 0%
Panel of 203 kinases [8]
  inhibition at 10 µM: 0%

## Nc1ncc2c(-c3ccncc3)c[nH]c2n1 [Compound 11]
Panel of 203 kinases [1]
  inhibition at 10 µM: 0%
Panel of 203 kinases [2]
  inhibition at 10 µM: 0%
Panel of 203 kinases [3]
  inhibition at 10 µM: 97.1%
Panel of 203 kinases [4]
  inhibition at 10 µM: 0%
Panel of 203 kinases [5]
  inhibition at 10 µM: 0%
Panel of 203 kinases [6]
  inhibition at 10 µM: 0%
Panel of 203 kinases [7]
  inhibition at 10 µM: 0%
Panel of 203 kinases [8]
  inhibition at 10 µM: 0%
